Literature values in patent US8569304B2, “Active esters of N-substituted piperazine acetic acids, including isotopically enriched versions thereof” (DH Technologies Development Pte. Ltd., priority 2004, dated 2013).

Conditions: alcohol (leaving group) used to form the trifluoroacetate ester / active ester

In the case of O=C1CCC(=O)N1O [NHS, N-Hydroxysuccinimide], the pKa is given as 7.80.
